Our source for the IC50 values is BindingDB's records for doi:10.1021/jm00156a023 (1986).

Molecules are shown by their SMILES.

The target of test [1] is maltase-glucoamylase (Sus scrofa). As to the kind of experiment: Inhibitory activity against porcine maltase.
Test [2] concerns the target sucrase-isomaltase (Sus scrofa). The test can be described thus: Alpha-D-glucosidase inhibitory activity and enzyme inhibition in vitro against porcine sucrase.

In test [1], `OC[C@@]1(O)C[C@H](NC[C@H](O)c2ccccc2)[C@H](O)[C@H](O)[C@H]1O` [1-Hydroxymethyl-5-(2-hydroxy-2-phenyl-ethylamino)-cyclohexane-1,2,3,4-tetraol] came in with an IC50 of 5.8 nM.
`CO[C@H]1O[C@H](CO)[C@@H](N[C@H]2C[C@](O)(CO)[C@@H](O)[C@H](O)[C@H]2O)[C@H](O)[C@H]1O`: the half-inhibitory concentration (IC50) in test [2] amounted to 80 nM; in test [1], 72 nM.
The like results for `OC[C@@]1(O)C[C@H](NC2CCCCC2)[C@H](O)[C@@H](O)[C@@H]1O` [5-Cyclohexylamino-1-hydroxymethyl-cyclohexane-1,2,3,4-tetraol] were, in that order, 15 nM and 410 nM.
For `OCC1=C[C@H](NC(CO)CO)[C@H](O)[C@@H](O)[C@@H]1O` [6-(2-Hydroxy-1-hydroxymethyl-ethylamino)-4-hydroxymethyl-cyclohex-4-ene-1,2,3-triol], in that order: 180 nM and 5900 nM.
In test [2], `OC[C@@]1(O)C[C@H](NC[C@@H](O)c2ccccc2)[C@H](O)[C@H](O)[C@H]1O` [1-Hydroxymethyl-5-(2-hydroxy-2-phenyl-ethylamino)-cyclohexane-1,2,3,4-tetraol] registered a concentration for half-maximal inhibition (IC50) of 190 nM.
Take `CC(C)(C)c1cc(CN[C@H]2C[C@](O)(CO)[C@@H](O)[C@H](O)[C@H]2O)cc(C(C)(C)C)c1O` [5-(3,5-Di-tert-butyl-4-hydroxy-benzylamino)-1-hydroxymethyl-cyclohexane-1,2,3,4-tetraol]: the IC50 in test [2] is 6.8 nM; in test [1], 43 nM.
For `CO[C@H]1O[C@H](CO)[C@H](N[C@H]2C[C@](O)(CO)[C@@H](O)[C@H](O)[C@H]2O)[C@H](O)[C@H]1O`, in that order: 230 nM and 100 nM.
The like results for `OC[C@@]1(O)C[C@H](NCCc2ccccc2)[C@H](O)[C@@H](O)[C@@H]1O` [1-Hydroxymethyl-5-phenethylamino-cyclohexane-1,2,3,4-tetraol] were, in that order, 2.3 nM and 100 nM.
For `CC(C)=CCC/C(C)=C/CN[C@H]1C[C@](O)(CO)[C@@H](O)[C@H](O)[C@H]1O` [5-(3,7-Dimethyl-octa-2,6-dienylamino)-1-hydroxymethyl-cyclohexane-1,2,3,4-tetraol], in that order: 11 nM and 520 nM.
For the compound `OC[C@@]1(O)C[C@H](NCc2ccc(Br)cc2)[C@H](O)[C@@H](O)[C@@H]1O` [5-(4-Bromo-benzylamino)-1-hydroxymethyl-cyclohexane-1,2,3,4-tetraol], the IC50 in test [2] was determined as 15 nM; in test [1], 230 nM.
The like results for `N[C@H]1C[C@](O)(CO)[C@@H](O)[C@H](O)[C@H]1O` [Valiolamine] were, in that order, 49 nM and 2200 nM.
As for `OC[C@@]1(O)C[C@H](NCC2CCCCC2)[C@H](O)[C@@H](O)[C@@H]1O` [5-(Cyclohexylmethyl-amino)-1-hydroxymethyl-cyclohexane-1,2,3,4-tetraol], the half-inhibitory concentration (IC50) in test [2] was 9.3 nM; in test [1], 240 nM.
